Measured values reported in BindingDB's records for doi:10.1016/s0960-894x(01)00306-7 (Atherogenics, 2001).

assay: Ability to inhibit expression of Vascular cell adhesion molecule 1

Row | Compound | IC50 [µM]
1 | CN1CCN(S(=O)(=O)c2ccc(Cl)c([N+](=O)[O-])c2)CC1 [1-(4-Chloro-3-nitro-benzenesulfonyl)-4-methyl-piperazine] | 8
2 | O=[N+]([O-])c1cc(S(=O)(=O)N2CCCC2)ccc1Cl [1-(4-Chloro-3-nitro-benzenesulfonyl)-pyrrolidine] | 4
3 | O=[N+]([O-])c1cc(S(=O)(=O)c2ccc(F)c([N+](=O)[O-])c2)ccc1F [1-fluoro-4-[(4-fluoro-3-nitrophenyl)sulfonyl]-2-nitrobenzene] | 7
4 | CN(CCCN(C)S(=O)(=O)c1ccc(Cl)c([N+](=O)[O-])c1)S(=O)(=O)c1ccc(Cl)c([N+](=O)[O-])c1 [1N-{3-[4-chloro-3-nitrophenyl(methyl)sulfonamido]propyl}-1N-methyl-4-chloro-3-nitro-1-benzenesulfonamide] | 6
5 | CN(CCCCCCN(C)S(=O)(=O)c1ccc(Cl)c([N+](=O)[O-])c1)S(=O)(=O)c1ccc(Cl)c([N+](=O)[O-])c1 [1N-{6-[4-chloro-3-nitrophenyl(methyl)sulfonamido]hexyl}-1N-methyl-4-chloro-3-nitro-1-benzenesulfonamide] | 30
6 | N#Cc1cc([N+](=O)[O-])ccc1Cl [2-Chloro-5-nitro-benzonitrile] | 17
7 | N#Cc1cc([N+](=O)[O-])cc([N+](=O)[O-])c1 [3,5-Dinitro-benzonitrile] | 10
8 | N#Cc1ccc(Cl)cc1[N+](=O)[O-] [4-Chloro-2-nitro-benzonitrile] | 5
9 | N#Cc1cc([N+](=O)[O-])c(Cl)c([N+](=O)[O-])c1 [4-Chloro-3,5-dinitro-benzonitrile] | 20
10 | CCCCCN(CCCCC)S(=O)(=O)c1ccc(Cl)c([N+](=O)[O-])c1 [4-Chloro-3-nitro-N,N-dipentyl-benzenesulfonamide] | 7
11 | O=Cc1ccc(Cl)c([N+](=O)[O-])c1 [4-Chloro-3-nitro-benzaldehyde] | 15
12 | N#Cc1ccc(Cl)c([N+](=O)[O-])c1 [4-Chloro-3-nitro-benzonitrile] | 11
13 | O=[N+]([O-])c1cc(S(=O)(=O)N(CCO)CCO)ccc1Cl [4-Chloro-N,N-bis-(2-hydroxy-ethyl)-3-nitro-benzenesulfonamide] | 19
14 | O=C(c1ccc(Cl)c([N+](=O)[O-])c1)c1ccc(Cl)c([N+](=O)[O-])c1 [Bis-(4-chloro-3-nitro-phenyl)-methanone] | 5
15 | CCCCN(CCCC)S(=O)(=O)c1ccc(Cl)c([N+](=O)[O-])c1 [N,N-Dibutyl-4-chloro-3-nitro-benzenesulfonamide] | 10
16 | O=[N+]([O-])c1cc(S(=O)(=O)NCc2ccccc2)ccc1Cl [N-Benzyl-4-chloro-3-nitro-benzenesulfonamide] | 18

Now from value to molecule:

Row | IC50 [µM] | Compound
17 | 8 | CCOC(=O)C1CCN(S(=O)(=O)c2ccc(Cl)c([N+](=O)[O-])c2)CC1 [1-(4-Chloro-3-nitro-benzenesulfonyl)-piperidine-4-carboxylic acid ethyl ester]
18 | 9 | CCCN(CCC)S(=O)(=O)c1ccc(Cl)c([N+](=O)[O-])c1 [4-Chloro-3-nitro-N,N-dipropyl-benzenesulfonamide]
19 | 40 | NS(=O)(=O)c1ccc(Cl)c([N+](=O)[O-])c1 [4-Chloro-3-nitro-benzenesulfonamide]
20 | 5 | COCCN(CCOC)S(=O)(=O)c1ccc(Cl)c([N+](=O)[O-])c1 [4-Chloro-N,N-bis-(2-methoxy-ethyl)-3-nitro-benzenesulfonamide]
21 | 3 | CCN(CC)S(=O)(=O)c1ccc(Cl)c([N+](=O)[O-])c1 [4-Chloro-N,N-diethyl-3-nitro-benzenesulfonamide]
22 | 10 | CC(C)N(C(C)C)S(=O)(=O)c1ccc(Cl)c([N+](=O)[O-])c1 [4-Chloro-N,N-diisopropyl-3-nitro-benzenesulfonamide]
23 | 10 | CN(C)S(=O)(=O)c1ccc(Cl)c([N+](=O)[O-])c1 [4-Chloro-N,N-dimethyl-3-nitro-benzenesulfonamide]
24 | 15 | CCNS(=O)(=O)c1ccc(Cl)c([N+](=O)[O-])c1 [4-Chloro-N-ethyl-3-nitro-benzenesulfonamide]
25 | 15 | CCN(C(C)C)S(=O)(=O)c1ccc(Cl)c([N+](=O)[O-])c1 [4-Chloro-N-ethyl-N-isopropyl-3-nitro-benzenesulfonamide]
26 | 10 | CCN(C)S(=O)(=O)c1ccc(Cl)c([N+](=O)[O-])c1 [4-Chloro-N-ethyl-N-methyl-3-nitro-benzenesulfonamide]
27 | 11 | CNS(=O)(=O)c1ccc(Cl)c([N+](=O)[O-])c1 [4-Chloro-N-methyl-3-nitro-benzenesulfonamide]
28 | 5 | COC(=O)c1ccc(S(C)(=O)=O)c([N+](=O)[O-])c1 [4-Methanesulfonyl-3-nitro-benzoic acid methyl ester]
29 | 15 | O=C(c1ccccc1)c1ccc(Cl)c([N+](=O)[O-])c1 [(4-Chloro-3-nitro-phenyl)-phenyl-methanone]
